# Measurements as given in patent publication US20210395327A1, “Growth Hormone-Releasing Hormone Antagonists and Uses Thereof” (United States Government As Represented By The Department …, priority 2019, published 2021).
# Non-standard residues stand in square brackets, D forms with d. Residues, ends and D or L forms follow the SMILES beside them. *: point of attachment. Phe(4-Cl) = N[C@@H](Cc1ccc(Cl)cc1)C(=O)O; hArg = N=C(N)NCCCC[C@H](N)C(=O)O; 12Ado = NCCCCCCCCCCCC(=O)O; Nle = CCCC[C@H](N)C(=O)O; Orn = NCCC[C@H](N)C(=O)O; Abu = CC[C@H](N)C(=O)O; PhAc = O=C(Cc1ccccc1)*
# Legend:
# [1] = system: KATOIII stomach cancer cells; test: In vitro cell viability, KATOIII; assay type: cell-based, human; conditions: antagonist 5 μM for 72 h, cell proliferation assay; MIA602 = 1
# In short: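 Cells grown to ~60% confluence, serum-starved 24 h in 0.5% FBS, then treated with antagonists at 1, 2.5 or 5 μM or vehicle (0.1% DMSO) in quintuplicate for 72 h, medium replaced every 48 h. Viability read by MTS-type CellTiter 96 AQueous One assay; expressed as inhibitory potency relative to MIA602.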
# [2] = system: HCC1806 breast cancer cells; test: In vitro cell viability, HCC1806; assay type: cell-based, human; conditions: antagonist 5 μM for 72 h, cell proliferation assay; MIA602 = 1
# Protocol: (§1) The inhibitory effects of the various synthesized GHRH antagonists were tested in cell proliferation assays in various human cancer cell lines including stomach cancer (KATOIII, N87), colon cancer (HT-29), urothelial cancer (J82, RT4), pancreatic cancer (PANC-1, CFPAC-1), prostatic cancer (PC3), breast cancer (MX-1, HCC1806), ovarian cancer (SK-OV-3, OVCAR-3) and lung cancer (HCC827, H460).
# (§2) Cell culture. Human cancer cell lines including pancreatic (PANC-1 and CFPAC-1), lung (HCC827 and H460), stomach (NCI-N87 and KATOIII), urothelial (J82, RT4), prostatic (PC3), breast (MX-1 and HCC 1806), colorectal (HT-29), and ovarian (SK-OV-3 and OVCAR-3) were obtained from the American Type Culture Collection (ATCC) and cultured at 37° C. in a humidified 95% air/5% CO2 atmosphere in the medium recommended by ATCC.
# (§3) In vitro cell viability. Cell viability was analyzed as follows: cancer cells including pancreatic (PANC-1 and CFPAC-1), lung (HCC827 and H460), stomach (NCI-N87 and KATOIII), urothelial (J82, RT4), prostatic (PC3) and breast (MX-1 and HCC 1806), colorectal (HT-29) and ovarian (SK-OV-3 and OVCAR-3) were grown on 96 well plates to ˜60% confluence, the cells were starved for 24 h in culture medium containing 0.5% FBS. Cells were then treated with GHRH antagonists MIA602 AVR compounds at concentrations of 1, 2.5 or 5 μM, or vehicle (0.1% DMSO) in quintuplicates for 72 hours. The medium was replaced every 48 hours. Cell viability was measured using CellTiter 96 aqueous one solution kit (Promega). Inhibitory effects of tested AVR compounds in comparison to that of MIA602 are presented as inhibitory potency.
# (§4) Inhibitory effects of selected AVR compounds in comparison to that of MIA602 are presented as inhibitory potency (e.g., percentage of inhibition). […] The cell lines tested including lung cancer HCC827 (FIG. 2A), pancreatic cancer CFPAC-1 (FIG. 2B), stomach cancer N87 (FIG. 2C), colon cancer HT-29 (FIG. 2D), breast cancers MX-1 and HCC1806 (FIGS. 2 E, F). Based on the results of cell proliferation assay after cancer cells were treated with antagonist at concentration of 5 μM for 72H, the relative inhibitory potency of AVR antagonists in comparison to MIA-602 is summarized in Table 3 A and B. Over 60 AVR compounds were tested in 12 cancer cell lines.
# (§5) Based on the results of cell proliferation assay after cancer cells were treated with antagonist at concentration of 5 µM for 72H, * at concentration of 2 µM for 72 H.
# [3] = system: J82 urothelial cancer cells; test: In vitro cell viability, J82; assay type: cell-based, human; conditions: antagonist 5 μM for 72 h, cell proliferation assay; MIA602 = 1
# Protocol: as §1, §2, §3, §4
# [4] = system: NCI-N87 stomach cancer cells; test: In vitro cell viability (CellTiter 96), N87; assay type: cell-based, human; conditions: antagonist 5 μM for 72 h, cell proliferation assay; MIA602 = 1
# Protocol: as §1, §2, §3, §4, §5
# [5] = system: PC3 prostatic cancer cells; test: In vitro cell viability, PC3; assay type: cell-based, human; conditions: antagonist 5 μM for 72 h, cell proliferation assay; MIA602 = 1
# Protocol: as §1, §2, §3
# (§6) Inhibitory effects of selected AVR compounds in comparison to that of MIA602 are presented as inhibitory potency (e.g., percentage of inhibition). […] The cell lines tested including lung cancer HCC827 (FIG. 2A), pancreatic cancer CFPAC-1 (FIG. 2B), stomach cancer N87 (FIG. 2C), colon cancer HT-29 (FIG. 2D), breast cancers MX-1 and HCC1806 (FIGS. 2 E, F). […]
# [6] = system: CFPAC-1 pancreatic cancer cells; test: In vitro cell viability, CFPAC-1; assay type: cell-based, human; conditions: antagonist 5 μM for 72 h, cell proliferation assay; MIA602 = 1
# In short: (§7)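 Cells grown to ~60% confluence, serum-starved 24 h in 0.5% FBS medium, then exposed to compounds at 5 μM (some at 2 μM) or 0.1% DMSO vehicle for 72 h, in quintuplicate, medium changed every 48 h. Viability read by MTS-type CellTiter 96 AQueous assay; values are inhibitory potency relative to MIA602.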
# [7] = system: RT4 urothelial cancer cells; test: In vitro cell viability, RT4; assay type: cell-based, human; conditions: antagonist 5 μM for 72 h, cell proliferation assay; MIA602 = 1
# Protocol: as §1, §2, §3, §6
# [8] = system: MX-1 breast cancer cells; test: In vitro cell viability, MX-1; assay type: cell-based, human; conditions: antagonist 5 μM for 72 h, cell proliferation assay; MIA602 = 1
# Protocol: as §1, §2, §3, §4, §5
# [9] = system: PANC-1 pancreatic cancer cells; test: In vitro cell viability, PANC-1; assay type: cell-based, human; conditions: antagonist 5 μM for 72 h, cell proliferation assay; MIA602 = 1
# Protocol: as §1, §2, §3, §4
# [10] = system: HCC827 lung cancer cells; test: In vitro cell viability, HCC827; assay type: cell-based, human; conditions: antagonist 5 μM for 72 h, cell proliferation assay; MIA602 = 1
# In short: as §7
# [11] = biological target: T1, membrane GHRH-receptors on human anterior pituitary cells (Homo sapiens, UniProt Q02643); test: Receptor binding, displacement of 125I-[His1,Nle27]-hGH-RH(1-32)NH2 on human pituitary membranes
# T1 construct: Human pituitary was purchased from the National Hormone and Peptide Program; tissue National Hormone and Peptide Program; host or cells: human pituitary (membrane fractions)
# T1 sequence (Q02643 23-423): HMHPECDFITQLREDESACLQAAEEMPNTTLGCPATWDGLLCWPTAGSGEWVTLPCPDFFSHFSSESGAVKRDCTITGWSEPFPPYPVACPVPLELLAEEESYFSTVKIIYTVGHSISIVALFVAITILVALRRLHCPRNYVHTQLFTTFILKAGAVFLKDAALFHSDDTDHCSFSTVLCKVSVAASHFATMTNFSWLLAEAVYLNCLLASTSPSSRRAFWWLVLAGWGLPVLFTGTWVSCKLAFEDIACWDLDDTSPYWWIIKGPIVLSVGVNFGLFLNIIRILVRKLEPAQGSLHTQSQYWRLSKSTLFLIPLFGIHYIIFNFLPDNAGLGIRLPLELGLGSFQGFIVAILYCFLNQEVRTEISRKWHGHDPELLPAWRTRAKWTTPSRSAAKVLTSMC
# In short: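 Membrane fractions from human pituitary; peptides displace 125I-[His1,Nle27]-hGH-RH(1-32)NH2. IC50 is the dose giving 50% inhibition of specific binding, from duplicate tubes. Relative affinity is the ratio of test IC50 to hGH-RH(1-29)NH2 IC50.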
smiles,measurement,setting,value
"CCCC[C@H](NC(=O)[C@@H](NC(=O)[C@H](CC(=O)O)NC(=O)[C@H](CCC(N)=O)NC(=O)[C@H](CC(C)C)NC(=O)[C@H](CC(C)C)NC(=O)[C@H](CCCN)NC(=O)[C@H](Cc1c[nH]cn1)NC(=O)[C@H](C)NC(=O)[C@H](CO)NC(=O)[C@H](CC(C)C)NC(=O)[C@H](CCC(N)=O)NC(=O)[C@H](CC)NC(=O)[C@H](CC(C)C)NC(=O)[C@@H](NC(=O)[C@H](CCCCN)NC(=O)[C@H](CCCNC(=N)N)NC(=O)[C@H](Cc1ccc(OC)cc1)NC(=O)[C@H](CCCNC(=N)N)NC(=O)[C@H](C)NC(=O)[C@@H](NC(=O)[C@H](Cc1ccc(Cl)cc1)NC(=O)[C@@H](NC(=O)[C@H](C)NC(=O)[C@H](CC(=O)O)NC(=O)[C@@H](CCCNC(=N)N)NC(=O)[C@H](Cc1ccc(O)cc1)NC(=O)CCCCCCCCCCCNC(=O)Cc1ccccc1)[C@@H](C)CC)[C@@H](C)O)C(C)C)[C@@H](C)CC)C(=O)N[C@H](CCCNC(=N)N)C(=O)N[C@@H](CCCCNC(=N)N)C(N)=O [AVR-104, PhAC-Ada-Tyr-DArg-Asp-Ala-Ile-Cpa-Thr-Ala-Arg-Tyr(Me)-Arg-Lys-Val-Leu-Abu-Gln-Leu-Ser-Ala-His-Orn-Leu-Leu-Gln-Asp-Ile-Nle-DArg-Har-NH2] ({PhAc-12Ado}-Y[dR]DAI[Phe(4-Cl)]TARY(Me)RKVL[Abu]QLSAH[Orn]LLQDI[Nle][dR][hArg]-NH2)","relative inhibitory potency in comparison to MIA-602, Stomach KATOIII",[1],1.321
same,"relative inhibitory potency in comparison to MIA-602, Breast IICC1806",[2],1.220
same,"relative inhibitory potency in comparison to MIA-602, Urothelial J82",[3],3.377
same,"relative inhibitory potency in comparison to MIA-602, Stomach N87",[4],2.291
same,"relative inhibitory potency in comparison to MIA-602, Prostatic PC3",[5],1.440
same,"relative inhibitory potency in comparison to MIA-602, Pancreatic CFPAC-1",[6],1.502
same,"relative inhibitory potency in comparison to MIA-602, Urothelial RT4",[7],1.697
same,"relative inhibitory potency in comparison to MIA-602, Breast MX-1",[8],1.310
same,"relative inhibitory potency in comparison to MIA-602, Pancreatic Panc-1",[9],1.114
same,"relative inhibitory potency in comparison to MIA-602, Lung IICC827",[10],1.525
same,IC50,[11],0.59 nM
